Reference: publication PMC11129182, “Development of Inhibitors, Probes, and PROTAC Provides a Complete Toolbox to Study PARK7 in the Living Cell” (Journal of Medicinal Chemistry, 2024)

target: T1, PARK7 (Homo sapiens, UniProt Q99497); experiment: High-throughput screen of the crude compound library, PARK7 fluorescence polarization (FP) assay with FP reagent JYQ-107; format: biochemical; details: 1.25 µM, crude compound library; read-out: HTS FP assay %Inhibition (1.25 µM)
T1 sequence (Q99497 1-189): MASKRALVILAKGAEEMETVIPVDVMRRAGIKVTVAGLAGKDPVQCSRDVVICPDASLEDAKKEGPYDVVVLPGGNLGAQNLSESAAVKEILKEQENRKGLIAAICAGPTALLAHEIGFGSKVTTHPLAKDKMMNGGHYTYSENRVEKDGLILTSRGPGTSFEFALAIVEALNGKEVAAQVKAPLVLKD
From the text: Therefore, taking JYQ-88 as a starting point, we conducted an optimization to further improve the molecule in terms of inhibitory potency, specificity, and cellular uptake. […] First, a small tailored library was designed and synthesized to investigate whether the introduction of larger, hydrophilic substituents on JYQ-88 would enhance the interaction with the PARK7 pocket. […] The second approach involved the generation of a compound library containing diverse substituents at the azidomethyl position. […] We next performed a high-throughput screen of this crude compound library using our in-house developed PARK7 fluorescence polarization (FP) assay.[15]

| Compound | inhibition at 1.25 µM [%] |
| --- | --- |
| N#CN1CC[C@@H](C(=O)Nc2nc3c(s2)CN(C(=O)c2nc(N4CCCC4)ncc2Cl)CC3)C1 [compound 6] | 71.7 |
| N#CN1CC[C@@H](C(=O)Nc2nc3c(s2)CN(C(=O)C(Cc2c[nH]cn2)NS(=O)(=O)c2ccc(Cl)cc2)CC3)C1 (some centres unmarked) [compound 7] | 67.3 |
| N#CN1CC[C@@H](C(=O)Nc2nc3c(s2)CN(C(=O)Cc2csc(-c4cnccn4)n2)CC3)C1 [compound 8] | 71.4 |
| N#CN1CC[C@@H](C(=O)Nc2nc3c(s2)CN(C(=O)CCN(Cc2ccccc2)S(=O)(=O)c2c(Cl)cccc2Cl)CC3)C1 [compound 9] | 69.7 |
| N#CN1CC[C@@H](C(=O)Nc2nc3c(s2)CN(C(=O)Cc2ccc(S(=O)(=O)N4CCCC4)s2)CC3)C1 [compound 15] | 69.5 |
| CN(C(=O)c1cccs1)c1ccccc1C(=O)N1CCc2nc(NC(=O)[C@@H]3CCN(C#N)C3)sc2C1 [compound 16] | 63 |
| CN1CCN(c2ccccc2C(=O)N2CCc3nc(NC(=O)[C@@H]4CCN(C#N)C4)sc3C2)CC1 [compound 17] | 51.2 |
| N#CN1CC[C@@H](C(=O)Nc2nc3c(s2)CN(C(=O)c2cc(S(N)(=O)=O)ccc2-c2cccc(C(F)(F)F)c2)CC3)C1 [compound 19] | 69 |
| N#CN1CC[C@@H](C(=O)Nc2nc3c(s2)CN(C(=O)C2CCN(Cc4ccc(Cl)s4)CC2)CC3)C1 [compound 23] | 68.4 |
| N#CN1CC[C@@H](C(=O)Nc2nc3c(s2)CN(C(=O)C2CC(=O)N(c4cnccn4)C2)CC3)C1 (some centres unmarked) [compound 24] | 71.4 |
| CCC(C(=O)N1CCc2nc(NC(=O)[C@@H]3CCN(C#N)C3)sc2C1)n1nnc(-c2ccsc2)n1 (some centres unmarked) [compound 25] | 65.2 |
| Cc1cnn(-c2c(C(=O)N3CCc4nc(NC(=O)[C@@H]5CCN(C#N)C5)sc4C3)c(C)nn2C)c1 [compound 26] | 61.4 |
| N#CN1CC[C@@H](C(=O)Nc2nc3c(s2)CN(C(=O)c2ncoc2C2CC2)CC3)C1 [compound 28] | 85.7 |
| N#CN1CC[C@@H](C(=O)Nc2nc3c(s2)CN(C(=O)CC(O)(c2nccn2Cc2ccccc2)C(F)(F)F)CC3)C1 (some centres unmarked) [compound 29] | 78.4 |
| Cc1ccc(NS(=O)(=O)c2cccc(C(=O)N3CCc4nc(NC(=O)[C@@H]5CCN(C#N)C5)sc4C3)c2)cc1 [compound 31] | 83.8 |
| N#CN1CC[C@@H](C(=O)Nc2nc3c(s2)CN(C(=O)[C@@H]2C[C@H]2c2ccco2)CC3)C1 [compound 32] | 87 |
| N#CN1CC[C@@H](C(=O)Nc2nc3c(s2)CN(C(=O)C2(n4cnnn4)CC2)CC3)C1 [compound 34] | 65.7 |
| N#CN1CC[C@@H](C(=O)Nc2nc3c(s2)CN(C(=O)C2CC(OCc4ccccc4)C2)CC3)C1 (some centres unmarked) [compound 35] | 78.9 |

| Compound | inhibition at 1.25 µM [%] |
| --- | --- |
| N#CN1CC[C@@H](C(=O)Nc2nc3c(s2)CN(C(=O)C2(n4cnnn4)CCOCC2)CC3)C1 [compound 36] | 65.2 |
| CCn1cc(S(=O)(=O)N2CCC(C(=O)N3CCc4nc(NC(=O)[C@@H]5CCN(C#N)C5)sc4C3)CC2)cn1 [compound 38] | 69 |
| N#CN1CC[C@@H](C(=O)Nc2nc3c(s2)CN(C(=O)[C@@H]2CCO[C@H]2c2ccccc2)CC3)C1 [compound 39] | 63.3 |
| Cc1nc(CN2CCCC2C(=O)N2CCc3nc(NC(=O)[C@@H]4CCN(C#N)C4)sc3C2)no1 (some centres unmarked) [compound 43] | 71.1 |
| Cc1oc(-c2ccco2)nc1CC(=O)N1CCc2nc(NC(=O)[C@@H]3CCN(C#N)C3)sc2C1 [compound 44] | 71.6 |
| COc1ccc(N2CCN(C(C)C(=O)N3CCc4nc(NC(=O)[C@@H]5CCN(C#N)C5)sc4C3)CC2)cc1 (some centres unmarked) [compound 46] | 71.3 |
| Cc1cc(C)c(C(=O)N2CCc3nc(NC(=O)[C@@H]4CCN(C#N)C4)sc3C2)c(OCC2CCCCC2)n1 [compound 47] | 75.4 |
| N#CN1CC[C@@H](C(=O)Nc2nc3c(s2)CN(C(=O)c2cccc(S(=O)(=O)Nc4ccc(Cl)cc4)c2)CC3)C1 [compound 50] | 86.7 |
| N#CN1CC[C@@H](C(=O)Nc2nc3c(s2)CN(C(=O)c2ccn(-c4ncc(C(F)(F)F)cc4Cl)n2)CC3)C1 [compound 51] | 85.7 |
| N#CN1CC[C@@H](C(=O)Nc2nc3c(s2)CN(C(=O)CC(NS(=O)(=O)c2ccccc2)c2ccc(Cl)cc2)CC3)C1 (some centres unmarked) [compound 54] | 80.8 |
| N#CN1CC[C@@H](C(=O)Nc2nc3c(s2)CN(C(=O)Cc2ccc(NS(=O)(=O)c4c(Cl)cccc4Cl)cc2)CC3)C1 [compound 57] | 84.9 |
| CC1CC1C(=O)N1CCCCC1C(=O)N1CCc2nc(NC(=O)[C@@H]3CCN(C#N)C3)sc2C1 (some centres unmarked) [compound 61] | 70.5 |
| COc1cc(C(=O)N2CCc3nc(NC(=O)[C@@H]4CCN(C#N)C4)sc3C2)ccc1OCc1c(C)noc1C [compound 63] | 72.7 |
| N#CN1CC[C@@H](C(=O)Nc2nc3c(s2)CN(C(=O)Cc2ccc(S(=O)(=O)N4CCOCC4)s2)CC3)C1 [compound 65] | 87 |
| N#CN1CC[C@@H](C(=O)Nc2nc3c(s2)CN(C(=O)c2cc(OCc4ccccc4)ccn2)CC3)C1 [compound 66] | 70.6 |
| CN(Cc1ccco1)c1ccccc1C(=O)N1CCc2nc(NC(=O)[C@@H]3CCN(C#N)C3)sc2C1 [compound 67] | 72.7 |
| Cc1cccc(C(=O)N2CCCCC2C(=O)N2CCc3nc(NC(=O)[C@@H]4CCN(C#N)C4)sc3C2)n1 (some centres unmarked) [compound 68] | 66.5 |
| Cc1nc(-c2c(C)c(C)nn(C)c2=O)sc1C(=O)N1CCc2nc(NC(=O)[C@@H]3CCN(C#N)C3)sc2C1 [compound 69] | 70.5 |

More lines, now with the values ahead:

| inhibition at 1.25 µM [%] | Compound |
| --- | --- |
| 77.3 | N#CN1CC[C@@H](C(=O)Nc2nc3c(s2)CN(C(=O)c2ncoc2-c2cccs2)CC3)C1 [compound 10] |
| 66.6 | Cc1ccc(-n2c(C)ccc2C)c(C(=O)N2CCc3nc(NC(=O)[C@@H]4CCN(C#N)C4)sc3C2)c1 [compound 12] |
| 75.4 | N#CN1CC[C@@H](C(=O)Nc2nc3c(s2)CN(C(=O)Cc2csc(COc4ccc(Cl)cc4)n2)CC3)C1 [compound 13] |
| 73 | N#CN1CC[C@@H](C(=O)Nc2nc3c(s2)CN(C(=O)Cc2cc(-c4ccccc4)on2)CC3)C1 [compound 14] |
| 60.9 | Cn1cc(-c2ocnc2C(=O)N2CCc3nc(NC(=O)[C@@H]4CCN(C#N)C4)sc3C2)cn1 [compound 18] |
| 73 | N#CN1CC[C@@H](C(=O)Nc2nc3c(s2)CN(C(=O)c2cnoc2-c2cccs2)CC3)C1 [compound 20] |
| 59.5 | N#CN1CC[C@@H](C(=O)Nc2nc3c(s2)CN(C(=O)c2ccc(OCc4ccncc4)cc2)CC3)C1 [compound 21] |
| 80.8 | N#CN1CC[C@@H](C(=O)Nc2nc3c(s2)CN(C(=O)c2csc(-c4ncccn4)n2)CC3)C1 [compound 27] |
| 87 | Cn1ncc(C(=O)N2CCc3nc(NC(=O)[C@@H]4CCN(C#N)C4)sc3C2)c1-n1cccc1 [compound 33] |
| 73.8 | N#CN1CC[C@@H](C(=O)Nc2nc3c(s2)CN(C(=O)c2noc(Cc4ccccc4F)n2)CC3)C1 [compound 37] |
| 68.9 | N#CN1CC[C@@H](C(=O)Nc2nc3c(s2)CN(C(=O)c2cnnn2-c2ccccc2Cl)CC3)C1 [compound 40] |
| 66.3 | N#CN1CC[C@@H](C(=O)Nc2nc3c(s2)CN(C(=O)c2cnn(-c4ccncc4)c2)CC3)C1 [compound 41] |
| 69.7 | N#CN1CC[C@@H](C(=O)Nc2nc3c(s2)CN(C(=O)c2snnc2-c2ccc(Br)cc2)CC3)C1 [compound 42] |
| 68.7 | N#CN1CC[C@@H](C(=O)Nc2nc3c(s2)CN(C(=O)c2ccccc2OCc2ccncc2)CC3)C1 [compound 45] |
| 79.8 | N#CN1CC[C@@H](C(=O)Nc2nc3c(s2)CN(C(=O)c2ccc(S(=O)(=O)NC4CC4)cc2)CC3)C1 [compound 48] |
| 70.8 | N#CN1CC[C@@H](C(=O)Nc2nc3c(s2)CN(C(=O)c2cc(-c4ccc(Cl)cc4)oc2C(F)(F)F)CC3)C1 [compound 49] |
| 78.3 | N#CN1CC[C@@H](C(=O)Nc2nc3c(s2)CN(C(=O)Cc2coc(-c4ccccc4)n2)CC3)C1 [compound 52] |
| 64.9 | Cn1cc(NS(=O)(=O)c2ccsc2C(=O)N2CCc3nc(NC(=O)[C@@H]4CCN(C#N)C4)sc3C2)cn1 [compound 53] |
| 67.6 | N#CN1CC[C@@H](C(=O)Nc2nc3c(s2)CN(C(=O)c2c[nH]nc2-c2cccnc2)CC3)C1 [compound 56] |
| 74.4 | N#CN1CC[C@@H](C(=O)Nc2nc3c(s2)CN(C(=O)c2csc(-c4cnccn4)n2)CC3)C1 [compound 58] |
| 69.8 | N#CN1CC[C@@H](C(=O)Nc2nc3c(s2)CN(C(=O)c2ccc(Oc4cccc(Cl)c4Cl)nn2)CC3)C1 [compound 60] |
| 78.9 | N#CN1CC[C@@H](C(=O)Nc2nc3c(s2)CN(C(=O)c2ncoc2-c2ccco2)CC3)C1 [compound 62] |
| 85.9 | N#CN1CC[C@@H](C(=O)Nc2nc3c(s2)CN(C(=O)c2cnc(COc4ccccc4)s2)CC3)C1 [compound 70] |
| 69.5 | CC1=NN(c2ccc(C(=O)N3CCc4nc(NC(=O)[C@@H]5CCN(C#N)C5)sc4C3)cc2)CC1 [compound 71] |
| 87 | Cc1oc(Cn2cc(Br)cn2)cc1C(=O)N1CCc2nc(NC(=O)[C@@H]3CCN(C#N)C3)sc2C1 [compound 72] |

same assay, conditions: read-out: HTS FP assay %Inhibition (1.25 µM)

| Compound | inhibition at 1.25 µM [%] |
| --- | --- |
| N#CN1CC[C@@H](C(=O)Nc2nc3c(s2)CNCC3)C1 [amine] | 39.9 |
